Laboratory results published in patent US20240018166A1, “SULFONYL UREA NLRP3 INFLAMMASOME INHIBITORS” (Venatorx Pharmaceuticals, Inc., priority 2020, published 2024).

How the values were obtained:
[1] = MTT cell viability assay, HepG2 cells; type: cell-based; conditions: human, read-out: HepG2 Cytotoxicity CC50
Description: In order to assess the cytotoxicity of the compounds, an MTT cell viability assay was performed in either unstimulated THP-1 or HepG2 cells as follows. 5×10^4 THP-1 or 5×10^3 HepG2 cells were seeded into each well of a 96-well plate in 90 μL of media. Compounds were added to cells as described for the IL-10 assay and returned to the incubator for an additional 72 hours. Next, 25 μL of MTT solution (5 mg/mL in sterile PBS) was added to each well. Plates were incubated for 3 hours at 37° C., 5% CO2. Next, for THP-1 cells, 100 μl of MTT solubilization solution (40% Dimethylformamide, 2% glacial acetic acid, 16% sodium dodecyl sulfate) was then added to each well and plates were incubated at room temperature in the dark overnight. For HepG2 cells, media was aspirated, 50 μL of DMSO was added and plates were mixed briefly with an orbital plate shaker. Absorbance at 570 nm was measured using a Perkin-Elmer EnVision plate reader.
Absorbance values were converted to percentage of vehicle-treated controls. Data was then analyzed using a non-linear regression (variable slope (four-parameter)) equation in GraphPad Prism 7.0. […]

[2] = tested on: IL-1β; experiment: IL-1β inhibition assay (ELISA/HTRF of culture supernatants); type: cell-based; conditions: Homo sapiens, PMA-differentiated THP-1 cells, tested 10 μM to 0.003 μM
Summary of the method: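 PMA-differentiated THP-1 cells treated at final compound concentrations of 10 μM to 0.003 μM; supernatant IL-1β quantified by Quantikine ELISA or HTRF. Background-subtracted values expressed as % of vehicle controls; EC50 from four-parameter variable-slope nonlinear regression.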

[3] = MTT cell viability assay, THP-1 cells; type: cell-based; conditions: human, unstimulated THP-1 cells, read-out: THP-1 Cytotoxicity CC50
Summary of the method: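 Unstimulated THP-1 (5×10^4/well) or HepG2 (5×10^3/well) cells exposed to compound for 72 h, then MTT 3 h at 37 °C. Formazan solubilised overnight in DMF/acetic acid/SDS (THP-1) or in DMSO (HepG2); absorbance 570 nm. CC50 by four-parameter fit of percent vehicle control.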

[4] = target: T1, IL-1 (Homo sapiens, UniProt P01584); conditions: cited from earlier work
T1 construct: host or cells: patients (in vivo)

CC(CCn1ccc(S(=O)(=O)NC(=O)Nc2c3c(cc4c2CCC4)CCC3)n1)CB1OC(C)(C)C(C)(C)O1 (centres unmarked) [Example 61, N-((1,2,3,5,6,7-hexahydro-s-indacen-4-yl)carbamoyl)-1-(3-methyl-4-(4,4,5,5-tetramethyl-1,3,2-dioxaborolan-2-yl)butyl)-1H-pyrazole-3-sulfonamide]
CC50 at 72 h [1]: > 10 µM | EC50 [2]: < 1 µM | CC50 at 72 h [3]: > 10 µM

CC1(C)OB(O)c2ccc(S(=O)(=O)NC(=O)Nc3c4c(cc5c3CCC5)CCC4)cc21 [Example 57, N-((1,2,3,5,6,7-hexahydro-s-indacen-4-yl)carbamoyl)-1-hydroxy-3,3-dimethyl-1,3-dihydrobenzo[c][1,2]oxaborole-5-sulfonamide]
CC50 at 72 h [1]: > 10 µM | EC50 [2]: 1 to 10 µM | CC50 at 72 h [3]: > 10 µM

CC(C)(CCn1ccc(S(=O)(=O)NC(=O)Nc2c3c(cc4c2CCC4)CCC3)n1)B1OC(C)(C)C(C)(C)O1 [Example 62, N-((1,2,3,5,6,7-hexahydro-s-indacen-4-yl)carbamoyl)-1-(3-methyl-3-(4,4,5,5-tetramethyl-1,3,2-dioxaborolan-2-yl)butyl)-1H-pyrazole-3-sulfonamide]
CC50 at 72 h [1]: > 10 µM | EC50 [2]: < 1 µM | CC50 at 72 h [3]: > 10 µM

canakinumab: the neutralizing IL-10 antibody canakinumab (anti-IL-1, Novartis)
incidence of fatal infection ([4]; CANTOS trial): higher incidence of fatal infection | reduction in total cancer mortality (mostly lung cancer) compared to placebo ([4]; high-dose): > 50%
